Assay results published in PubChem BioAssay (NCI).
Where “and” joins values, the source holds several entries; their conditions need not be identical. Equal values may be shown once.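 Briefly, cells in 96-well plates were exposed to five compound concentrations for 48 h, and endpoints were estimated by linear interpolation. GI50 marks 50% less growth. Definition used: TGI = concentration required for complete inhibition of growth.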

How the values were obtained:
Experiment in all cases: growth of human tumour cells (NCI), 48 h
RXF 393 renal = system: RXF 393 renal
SW-620 colon = system: SW-620 colon
M14 melanoma = system: M14 melanoma
NCI-H23 lung = system: NCI-H23 lung
OVCAR-3 ovarian = system: OVCAR-3 ovarian
OVCAR-4 ovarian = system: OVCAR-4 ovarian
K-562 leukemia = system: K-562 leukemia
UO-31 renal = system: UO-31 renal
HL-60(TB) leukemia = system: HL-60(TB) leukemia
HCT-15 colon = system: HCT-15 colon

Compound	GI50 (RXF 393 renal)	TGI (RXF 393 renal)	GI50 (SW-620 colon)	TGI (SW-620 colon)	GI50 (M14 melanoma)	TGI (M14 melanoma)	GI50 (NCI-H23 lung)	TGI (NCI-H23 lung)	GI50 (OVCAR-3 ovarian)	TGI (OVCAR-3 ovarian)	GI50 (OVCAR-4 ovarian)	TGI (OVCAR-4 ovarian)	GI50 (K-562 leukemia)	TGI (K-562 leukemia)	GI50 (UO-31 renal)	TGI (UO-31 renal)	GI50 (HL-60(TB) leukemia)	TGI (HL-60(TB) leukemia)	GI50 (HCT-15 colon)	TGI (HCT-15 colon)
C[CH2][Sn]1([CH2]C)[O]C(=O)[O][Sn]([CH2]C)([CH2]C)[O]1	15.5 µM	30.3 µM	15.2 µM	29.2 µM	18.8 µM	33.1 µM	17.9 µM	35 µM	23.5 µM	> 61.8 µM	> 100 µM	> 100 µM	13.7 µM	78.1 µM	45.8 µM	> 100 µM	26.4 µM	81.7 µM	25.3 µM	> 54.4 µM
Cc1nc2ccc(C(F)(F)F)cc2nc1Nc1ccc(Cl)c(Cl)c1		19.1 µM		28.3 µM				26.4 µM		26.9 µM						24.6 µM		24 µM		18.5 µM
Cc1cc(/C=C2\SC(=Nc3ccccc3)N(C3CCCC3)C2=O)c(C)n1-c1ccc(Cl)cc1	> 100 µM	> 100 µM	> 100 µM	> 100 µM			> 100 µM	> 100 µM	> 100 µM	> 100 µM	> 100 µM	> 100 µM	> 100 µM	> 100 µM	> 100 µM	> 100 µM	> 100 µM	> 100 µM	> 100 µM	> 100 µM
CC(=O)OCC1OC(n2c(-c3ccccc3)cc(-c3ccco3)c(C#N)c2=O)C(OC(C)=O)C(OC(C)=O)C1OC(C)=O (stereo not given)		> 100 µM		> 100 µM	> 100 µM	> 100 µM		> 100 µM		> 100 µM		> 100 µM	> 68.8 µM and 9.04 µM	> 100 µM	> 100 µM and 21.2 µM	> 100 µM and 67.6 µM		> 100 µM	> 100 µM and 18.3 µM	> 100 µM
CC(=O)NC(CCCCNC(=O)OCc1ccccc1)C(=O)NCc1ccccc1 (stereo not given)		> 100 µM		> 100 µM		> 100 µM		> 100 µM		> 100 µM		> 100 µM		> 100 µM		> 100 µM				> 100 µM
O=c1cc(-c2ccccc2)[nH]c2cccc(S)c12		0.469 µM		> 100 µM		> 100 µM		> 100 µM		> 100 µM		> 100 µM		> 100 µM				> 100 µM		> 100 µM
O=C(Nc1ccccc1)c1ccc(Cl)c([N+](=O)[O-])c1		75.5 µM		34 µM		29.9 µM		63.6 µM		43.5 µM				14.3 µM		> 100 µM				46.5 µM
Nc1ccc(C(=O)N/C(=C\C=C\c2ccco2)c2nc3[nH]c(=S)[nH]c(=O)c3[nH]2)cc1		> 100 µM		> 100 µM		> 100 µM		> 100 µM		> 100 µM		> 100 µM		> 100 µM		> 100 µM				> 100 µM
O=C(O)C1CCc2ccc3ccccc3c2C1c1cccc2ccccc12 (stereo not given)		39.6 µM		> 100 µM		38.9 µM				29.8 µM		90.9 µM		> 100 µM		40.5 µM		62 µM		45.9 µM
Cc1ccc(C(=O)c2oc3ccc4c(C)cc(=O)oc4c3c2C)cc1	13.8 µM	91 µM	8.56 µM	> 100 µM			27.3 µM	> 100 µM	14.7 µM	54.8 µM	23.6 µM	75.5 µM	5.53 µM	> 100 µM	11.4 µM	> 100 µM	13.4 µM	> 100 µM	0.585 µM	> 100 µM
O=C(Oc1ccc(O)c2c(=O)n3c(cc12)[nH]c1ccccc13)c1ccccc1		0.505 µM	5.1 µM	26.9 µM	17.9 µM	37 µM	16 µM	37.7 µM			49 µM	> 100 µM	24.4 µM	64 µM	2.19 µM	10.1 µM	21.6 µM	51.7 µM	12.9 µM	28.2 µM
CCCC(=O)c1c(NOC2OC(COC(C)=O)C(OC(C)=O)C(OC(C)=O)C2OC(C)=O)nc(OC)n(C)c1=O (stereo not given)		> 100 µM		> 100 µM		> 100 µM		> 100 µM				> 100 µM		> 100 µM		89 µM				> 100 µM
C=CCc1cc2cccc(OC)c2oc1=O				> 100 µM		> 100 µM		> 100 µM		> 100 µM		> 100 µM		> 100 µM		69.2 µM		> 100 µM		> 100 µM
CCCCC#COP(=O)(OCC)OCC				> 100 µM		> 100 µM		> 100 µM		> 100 µM		> 100 µM				> 100 µM		> 100 µM		> 100 µM
CCN(CC)CCC1CC/C(=C\c2ccc(OC)cc2)C1=O (stereo not given)		> 100 µM		> 100 µM		> 100 µM				> 100 µM		> 100 µM		> 100 µM		> 100 µM		> 100 µM		> 100 µM
CN1CC(c2ccccc2)N(CCCCN2CC(c3ccccc3)N(C)CC2c2ccccc2)CC1c1ccccc1 (stereo not given)		71.1 µM		> 100 µM		> 100 µM				> 100 µM		> 100 µM		> 100 µM		> 100 µM		> 100 µM		> 100 µM
O=C(C(O)c1cn(Cc2ccccc2)c2ccccc12)N1CCCCC1 (stereo not given)		> 10 µM		> 100 µM		> 100 µM		> 10 µM		> 100 µM				> 100 µM		> 100 µM		> 100 µM		> 100 µM
CC1(C)C=CC[C@]2(C)[C@H]3CC[C@@H]4[C@H]5[C@H](C(=O)/C=C/c6cccnc6)CC[C@]5(CO)CC[C@@]4(C)[C@]3(C)CC[C@@H]12	1.12 µM	2.37 µM	1 µM	2.31 µM					1.37 µM	2.71 µM	1.47 µM	3.41 µM			1.21 µM	2.45 µM	0.304 µM	1.89 µM		
O=C1c2cc(Br)ccc2-c2c1c1ccc([N+](=O)[O-])cc1c(=O)n2CCCCl	0.487 µM	14.2 µM	0.0533 µM	> 100 µM	0.534 µM	1.78 µM	1.54 µM	8.04 µM	1.11 µM	14.5 µM	11.2 µM	77.7 µM	< 0.0495 µM	> 43.7 µM	0.0577 µM	3.43 µM			1.41 µM	> 100 µM
